According to ChEMBL document CHEMBL3817757, “Unprecedented Binding Mode of Hydroxamate-Based Inhibitors of Glutamate Carboxypeptidase II: Structural Characterization and Biological Activity” (J Med Chem, 2016):
The source made the active and inactive calls. No cut-off for these calls is given here.

What was measured:
[1] = target: Glutamate carboxypeptidase 2 (Homo sapiens, UniProt Q04609); test: Inhibition of human recombinant GCP2 expressed in Schneider 2 cells preincubated for 15 mins using [3H]-NAAG/NAAG as substrate measured after 20 mins by liquid scintillation counting
[2] = Tmax in CD1 mouse plasma at 10 mg/kg, po by LC/MS/MS analysis; format: ADME, organism-based
[3] = test system: Plasma; test: Plasma concentration in CD1 mouse at 10 mg/kg, po administered as single dose measured after 0.25 to 2 hrs by LC/MS/MS analysis; format: ADME, organism-based; settings: in vivo
[4] = Drug uptake in CD1 mouse sciatic nerve at 10 mg/kg, po administered as single dose measured after 0.25 to 2 hrs by LC/MS/MS analysis; format: ADME, organism-based; settings: in vivo
[5] = Ratio of CD1 mouse sciatic nerve AUC (0 to 2 hrs) to CD1 mouse plasma AUC (0 to 2 hrs); format: ADME, cell-free; settings: in vivo
[6] = test system: Rattus norvegicus; test: Analgesic activity in Sprague-Dawley rat chronic constrictive injury model of neuropathic pain assessed as increase in paw withdrawal latencies in response to thermal stimulus at 10 mg/kg/day, po administered via oral gavage for 15 days measured from day 4 of compound dosing; format: functional, organism-based
[7] = test system: Rattus norvegicus; test: Effect on absolute paw withdrawal latency to thermal stimulus in sham operated Sprague-Dawley rat at 10 mg/kg/day, po administered via oral gavage for 15 days measured over compound dosing; format: ADME, organism-based; settings: in vivo, 360 h

Sequence of Glutamate carboxypeptidase 2 (Q04609 whole entry): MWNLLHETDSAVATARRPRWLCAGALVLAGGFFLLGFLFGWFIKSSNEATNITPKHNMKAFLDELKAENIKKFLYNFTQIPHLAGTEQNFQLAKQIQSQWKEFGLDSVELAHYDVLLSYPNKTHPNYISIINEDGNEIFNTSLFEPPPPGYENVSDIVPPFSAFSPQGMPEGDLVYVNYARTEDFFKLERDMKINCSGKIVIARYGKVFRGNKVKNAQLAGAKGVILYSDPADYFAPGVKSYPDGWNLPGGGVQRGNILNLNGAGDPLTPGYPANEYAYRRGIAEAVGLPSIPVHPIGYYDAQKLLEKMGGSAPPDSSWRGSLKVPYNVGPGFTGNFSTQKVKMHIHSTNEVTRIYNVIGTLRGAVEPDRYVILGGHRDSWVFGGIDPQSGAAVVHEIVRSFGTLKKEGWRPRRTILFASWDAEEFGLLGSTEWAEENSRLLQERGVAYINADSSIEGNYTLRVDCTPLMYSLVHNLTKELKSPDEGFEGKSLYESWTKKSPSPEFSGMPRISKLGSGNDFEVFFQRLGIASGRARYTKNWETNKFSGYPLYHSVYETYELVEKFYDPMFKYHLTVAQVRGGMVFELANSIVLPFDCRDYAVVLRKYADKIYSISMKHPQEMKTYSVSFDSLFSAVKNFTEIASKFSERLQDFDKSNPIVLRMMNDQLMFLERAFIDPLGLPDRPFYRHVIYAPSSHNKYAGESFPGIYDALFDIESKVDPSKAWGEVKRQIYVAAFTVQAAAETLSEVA

Row | SMILES | IC50 [1] | Tmax [2] | concentration [3] | Drug uptake [4] | Ratio AUC [5] | Activity [6] | Activity [7]
1 | O=C(CC[C@@H](Cc1ccc(C(=O)O)cc1)C(=O)O)NO | 97 nM | 15 min | 121 nM | Active | 43% | Active | Non-toxic
2 | O=C(CC[C@H](Cc1ccc(C(=O)O)cc1)C(=O)O)NO | 44 nM |  |  |  |  |  | 
3 | O=C(CCC(Cc1ccc(C(=O)O)cc1)C(=O)O)NO (racemic) | 63 nM |  |  |  |  |  | 
